Experimental findings from US11629123B2, “Selenopsammaplin A and derivative thereof, preparation method therefor, and composition for preventing and treating cancer, containing same as active ingredients” (priority 2017, dated 2023) are described below.

Holding throughout (assay type): cell-based
Data set [1] has as its system colorectal cancer cell line HCT116. In words: cells. How it is done: (§1) To confirm the in vitro growth inhibitory efficacy of the samples prepared in Examples 1 to 28 against human lung cancer and colorectal cancer cell lines, the experiments were performed as follows by applying the method described in the literature (Lee S K et al ([…]) Chem Biol Interact 115:215-28). A human lung cancer cell line A549 and a colorectal cancer cell line HCT116 were acquired from the American Type Culture Collection (ATCC, Manassas, Va., USA) and used.
(§2) A549, HCT116 cells were subcultured once or twice weekly under conditions of 37° C. and 5% CO2 using Roswell Park Memorial Institute (RPMI) Medium 1640 (RPMI 1640) containing 10% heat-inactivated Fetal Bovine Serum (FBS), 100 units/mL penicillin, 100 μg/mL streptomycin, and 250 ng/mL amphotericin B. All cells were thawed from liquid nitrogen, subcultured three times or more, and then used in the experiment.
(§3) The effects of the compounds obtained in Examples 1 to 28 on cell growth were measured by a sulforhodamine B (SRB) method (Lee et al (1998) Chem Biol Interact 115: 215-28).
(§4) Specifically, the human lung cancer and colon cancer cell lines used in the present invention were subcultured in a RPMI medium containing 10% FBS, 1% PSF, and the like, 10 μl of a sample dissolved in 10% DMSO and 190 μl (5×10^4 cells/ml) of the cell suspension were placed in each well of a 96-well plate. 190 μl of the cell suspension was placed in at least 16 wells, cultured for 30 minutes, and used as a negative control (zero-day control) before the experiment. The cultured cells were fixed with 10% trichloroacetic acid (TCA) and then stained with an SRB solution, the staining solution was dissolved with 10 mM Tris-base, and absorbance was measured at 515 nm. Using the cell culture in 10% DMSO as a control, cell viability according to the treatment with each test sample was measured using the following Equation 1. % Cell viability=(OD(sample)−OD(0-day))/(OD(10% DMSO)−OD(0-day))×100 [Equation 1]
(§5) When the control in which the sample was not treated was defined as 100%, the value of the sample treatment group was shown as a percentage with respect to the control, and each test sample treatment was determined by the mean value±SEM of the duplicate or triplicate test. The IC50 value is the concentration of the test sample for 50% viability.

Data set [2] concerns human lung cancer cell line A549. Nature of the data set: cells. How it is done:
as §1, §2, §3, §4, §5

The subject of data set [3] is human lung cancer and colorectal cancer cell lines. Nature of the data set: In vitro growth inhibition (SRB), summary over both cell lines. Particulars: compared with control compound etoposide. How it is done: as §1, §2, §3, §4, §5
Where [4] appears, read: Homo sapiens, HCT-116, read-out: HCT116-LC50.
The mark [5] stands for this setting: Homo sapiens, A549, read-out: A549-LC50.
[6] abbreviates: Homo sapiens, HCT-116, read-out: HCT116-LC50, Table 2, SRB, concentration for 50% viability.
Where [7] appears, read: Homo sapiens, A549, read-out: A549-LC50, Table 2, SRB, concentration for 50% viability.
Where [8] appears, read: Homo sapiens, HCT-116, read-out: HCT116-LC50, Table 3, SRB, concentration for 50% viability.
[9] abbreviates: Homo sapiens, A549, read-out: A549-LC50, Table 3, SRB, concentration for 50% viability.

Structures are written as SMILES. Entries after “also recorded” stand apart in the source; their conditions may differ. Like-named read-outs stand apart in the source and are kept apart here.

For `O=C(NCC[Se]Sc1ccccc1)/C(Cc1ccc(F)c(F)c1)=N/O` [SSM-22, (E)-3-(3,4-difluorophenyl)-2-(hydroxyimino)-N-(2-((phenylthio)selanyl)ethyl)propanamide], the CC50 stood at 310 nM in data set [1] (setting [4]) and 480 nM in data set [2] (setting [5]).
`O=C(NCC[Se][Se]CCNC(=O)/C(Cc1ccc(O)c(Cl)c1)=N/O)/C(Cc1ccc(O)c(Cl)c1)=N/O` [SSM-2, (2E,2′E)-N,N′-(diselanediylbis(ethane-2,1-diyl))bis(3-(3-chloro-4-hydroxyphenyl)-2-(hydroxyimino)propanamide)]: the “cancer cell growth inhibitory activity compared to etoposide” value in data set [3] is “higher inhibitory activity than a control compound etoposide; also recorded: excellent cancer cell growth inhibitory potential even compared to etoposide”. In addition, the CC50 is 20 nM in data set [1] (setting [6]) and 50 nM in data set [2] (setting [7]).
For the compound `O=C(NCC[Se][Se]CCNC(=O)/C(Cc1ccc(OCc2ccccc2)cc1)=N/O)/C(Cc1ccc(OCc2ccccc2)cc1)=N/O` [SSM-11, (2E,2′E)-N,N′-(diselanediylbis(ethane-2,1-diyl))bis(3-(4-(benzyloxy)phenyl)-2-(hydroxyimino)propanamide)], the CC50 in data set [1] (setting [6]) is 100 nM; in data set [2] (setting [7]), 140 nM.
As for `CCOc1ccc(C/C(=N\O)C(=O)NCC[Se]Sc2ccccc2)cc1` [SSM-24, (E)-3-(4-ethoxyphenyl)-2-(hydroxyimino)-N-(2-((phenylthio)selanyl)ethyl)propanamide], the CC50 in data set [1] (setting [8]) came to 130 nM; in data set [2] (setting [9]) it was 330 nM.
The corresponding values for `O=C(NCC[Se]Sc1ccccc1)/C(Cc1ccc(OCc2ccccc2)cc1)=N/O` [SSM-25, (E)-3-(4-(benzyloxy)phenyl)-2-(hydroxyimino)-N-(2-((phenylthio)selanyl)ethyl)propanamide] are 80 nM and 180 nM.
In the case of `O=C(NCC[Se][Se]CCNC(=O)/C(Cc1ccc(Br)cc1)=N/O)/C(Cc1ccc(Br)cc1)=N/O` [SSM-7, (2E,2′E)-N,N′-(diselanediylbis(ethane-2,1-diyl))bis(3-(4-bromophenyl)-2-(hydroxyimino)propanamide)], the CC50 is 300 nM in data set [1] (setting [6]) and 320 nM in data set [2] (setting [7]).
Turning to `O=C(NCCSSCCNC(=O)/C(Cc1ccc(O)c(Br)c1)=N/O)/C(Cc1ccc(O)c(Br)c1)=N/O` [Psammaplin A], the CC50 in data set [1] (Table 2, SRB, concentration for 50% viability, read-out: HCT116-LC50) was found to be 610 nM; in data set [1] (Table 3, SRB, concentration for 50% viability, read-out: HCT116-LC50), 610 nM; in data set [2] (Table 2, SRB, concentration for 50% viability, read-out: A549-LC50), 1760 nM; in data set [2] (Table 3, SRB, concentration for 50% viability, read-out: A549-LC50), 1760 nM.
In the case of `O=C(NCC[Se]Sc1ccccc1)/C(Cc1ccc(F)cc1)=N/O` [SSM-19, (E)-3-(4-fluorophenyl)-2-(hydroxyimino)-N-(2-((phenylthio)selanyl)ethyl)propanamide], the CC50 came out at 330 nM in data set [1] (setting [8]) and 490 nM in data set [2] (setting [9]).
As to `O=C(NCC[Se][Se]CCNC(=O)/C(Cc1ccc(F)c(F)c1)=N/O)/C(Cc1ccc(F)c(F)c1)=N/O` [SSM-8, (2E,2′E)-N,N′-(diselanediylbis(ethane-2,1-diyl))bis(3-(3,4-difluorophenyl)-2-(hydroxyimino)propanamide)], the CC50 turned out to be 190 nM in data set [1] (setting [4]) and 200 nM in data set [2] (setting [5]).
Consider `O=C(NCC[Se]Sc1ccccc1)/C(Cc1ccc(O)c(Cl)c1)=N/O` [SSM-16, (E)-3-(3-chloro-4-hydroxyphenyl)-2-(hydroxyimino)-N-(2-((phenylthio)selanyl)ethyl)propanamide], for which the CC50 in data set [1] (setting [8]) turned out to be 90 nM; in data set [2] (setting [9]), 110 nM.
On the same counts, the results for `O=C(NCC[Se]Sc1ccccc1)/C(Cc1ccc2ccccc2c1)=N/O` [SSM-28, (E)-2-(hydroxyimino)-3-(naphthalen-2-yl)-N-(2-((phenylthio)selanyl)ethyl)propanamide] are 20 nM and 120 nM.
Take `O=C(NCC[Se]Sc1ccccc1)/C(Cc1ccc(O)c(Br)c1)=N/O` [SSM-15, (E)-3-(3-bromo-4-hydroxyphenyl)-2-(hydroxyimino)-N-(2-((phenylthio)selanyl)ethyl)propanamide]: the CC50 in data set [1] (setting [8]) was determined as 10 nM; in data set [2] (setting [9]), 100 nM.
In the case of `COc1cc([C@@H]2c3cc4c(cc3[C@@H](O[C@@H]3O[C@@H]5CO[C@@H](C)O[C@H]5[C@H](O)[C@H]3O)[C@H]3COC(=O)[C@H]23)OCO4)cc(OC)c1O` [Etoposide, reference compound], the CC50 was found to be 900 nM in data set [1] (setting [6]), 610 nM in data set [1] (setting [8]), 420 nM in data set [2] (setting [7]) and 710 nM in data set [2] (setting [9]).
Turning to `O=C(NCC[Se][Se]CCNC(=O)/C(Cc1ccc(Cl)cc1)=N/O)/C(Cc1ccc(Cl)cc1)=N/O` [SSM-6, (2E,2′E)-N,N′-(diselanediylbis(ethane-2,1-diyl))bis(3-(4-chlorophenyl)-2-(hydroxyimino)propanamide)], the CC50 in data set [1] (setting [4]) came out at 280 nM; in data set [2] (setting [5]), 250 nM.
As to `O=C(NCC[Se][Se]CCNC(=O)/C(Cc1ccc(F)cc1)=N/O)/C(Cc1ccc(F)cc1)=N/O` [SSM-5, (2E,2′E)-N,N′-(diselanediylbis(ethane-2,1-diyl))bis(3-(4-fluorophenyl)-2-(hydroxyimino)propanamide)], the CC50 in data set [1] (setting [6]) stood at 110 nM; in data set [2] (setting [7]) it was 100 nM.
With `O=C(NCC[Se]Sc1ccccc1)/C(Cc1ccc(Cl)c(Cl)c1)=N/O` [SSM-23, (E)-3-(3,4-dichlorophenyl)-2-(hydroxyimino)-N-(2-((phenylthio)selanyl)ethyl)propanamide], the CC50 in data set [1] (setting [4]) was 50 nM; in data set [2] (setting [5]), 280 nM.
`O=C(NCC[Se]Sc1ccccc1)/C(Cc1ccc(Br)cc1)=N/O` [SSM-21, (E)-3-(4-bromophenyl)-2-(hydroxyimino)-N-(2-((phenylthio)selanyl)ethyl)propanamide]: the CC50 is 180 nM in data set [1] (setting [8]) and 510 nM in data set [2] (setting [9]).
With `O=C(NCC[Se]Sc1ccccc1)/C(Cc1ccc(O)c(F)c1)=N/O` [SSM-17, (E)-3-(3-fluoro-4-hydroxyphenyl)-2-(hydroxyimino)-N-(2-((phenylthio)selanyl)ethyl)propanamide], the CC50 was found to be 200 nM in data set [1] (setting [8]) and 290 nM in data set [2] (setting [9]).
On to `O=C(NCC[Se]Sc1ccccc1)/C(Cc1ccc([N+](=O)[O-])cc1)=N/O` [SSM-26, (E)-2-(hydroxyimino)-3-(4-nitrophenyl)-N-(2-((phenylthio)selanyl)ethyl)propanamide], for which the CC50 in data set [1] (setting [4]) and in data set [2] (setting [5]) was 120 nM in each case.
As for `O=C(NCC[Se][Se]CCNC(=O)/C(Cc1ccc(Cl)c(Cl)c1)=N/O)/C(Cc1ccc(Cl)c(Cl)c1)=N/O` [SSM-9, (2E,2′E)-N,N′-(diselanediylbis(ethane-2,1-diyl))bis(3-(3,4-dichlorophenyl)-2-(hydroxyimino)propanamide)], the CC50 in data set [1] (setting [4]) is 520 nM; in data set [2] (setting [5]), 280 nM.
For the compound `O=C(NCC[Se]Sc1ccccc1)/C(Cc1ccc(Cl)cc1)=N/O` [SSM-20, (E)-3-(4-chlorophenyl)-2-(hydroxyimino)-N-(2-((phenylthio)selanyl)ethyl)propanamide], the values for the CC50 in data set [1] (setting [4]) and in data set [2] (setting [5]) were 330 nM and 490 nM, respectively.
In the case of `O=C(NCC[Se][Se]CCNC(=O)/C(Cc1ccc2ccccc2c1)=N/O)/C(Cc1ccc2ccccc2c1)=N/O` [SSM-14, (2E,2′E)-N,N′-(diselanediylbis(ethane-2,1-diyl))bis(2-(hydroxyimino)-3-(naphthalen-2-yl)propanamide)], the CC50 is 120 nM in data set [1] (setting [6]) and 380 nM in data set [2] (setting [7]).
As to `O=C(NCC[Se]Sc1ccccc1)/C(Cc1ccccc1)=N/O` [SSM-18, (E)-2-(hydroxyimino)-3-phenyl-N-(2-((phenylthio)selanyl)ethyl)propanamide], the CC50 in data set [1] (setting [8]) is 130 nM; in data set [2] (setting [9]), 280 nM.
Turning to `CC(C)(C)c1ccc(C/C(=N\O)C(=O)NCC[Se][Se]CCNC(=O)/C(Cc2ccc(C(C)(C)C)cc2)=N/O)cc1` [SSM-13, (2E,2′E)-N,N′-(diselanediylbis(ethane-2,1-diyl))bis(3-(4-(tert-butyl)phenyl)-2-(hydroxyimino)propanamide)], the CC50 is 130 nM in data set [1] (setting [4]) and 100 nM in data set [2] (setting [5]).
